test: recombinant barcode read abundance after kanamycin selection (control-corrected) (log10(CPM+1)); higher = more efficient recombination; sequences stand for … in AGTGCAGAGAAAATCGGCCAGTTTTCTCTGCCTGCAGTCCGCATGCCGT…AGATTTATGCAGCGGACTGCCTTTCTCCCAAAGTGATAAACCGGACAGTATCATGGACCGGTTTTCCCGGTAATCCGTATTTGCAAGGTTGGTTTCACT; site = the 11-nt target
Outline: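 Recombination efficiency draws on barcodes counted at recombinant junctions in a pooled E. coli screen of targets paired with IS621 bridge RNA target-binding loops. The counts were converted to counts per million, averaged and corrected against the chloramphenicol/ampicillin LB agar control, then reported as log10(CPM+1). Selection plates held chloramphenicol/ampicillin/kanamycin with 0.1 mM IPTG, with two replicates per condition.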
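Further: IS621 recombinase and bridge RNA in Escherichia coli cells.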

Sequence | recombinant barcode read abundance (log10)
ATCGTTCCTTGGGTTCTAACCTGTTGCGT (site ATCGTTCCTAC) | 0.411
ACTAGGACTTGGGTTCTAACCTGTTGCGT (site ACTAGGACTCC) | 1.22
AAATGGGCTTGGGTTCTAACCTGTTGCGG (site AAATGGGCTCC) | 2.5
ATAAGCCCTTGGGTTCTAACCTGTTGCCT (site AAAAGCCCTAG) | 0.176
CGCAAGCCTTGGGTTCTAACCTGTTGCAT (site CGTAAGCCTAT) | 0
CGGAATCCTTGGGTTCTAACCTGTTGCGT (site CGGAATCCTAG) | 0.345
TCTTGTCCTTGGGTTCTAACCTGTTGCGC (site TCTTGTCCTCC) | 0.093
TCCGAGGCTTGGGTTCTAACCTGTTGCTG (site TCGGAGGCTCA) | 0.521
GTGAGTCCTTGGGTTCTAACCTGTTGCGG (site GTGAGTCCTCC) | 2.42
GTATCCGCTTGGGTTCTAACCTGTTGCCA (site CGGCTGCCTCC) | 0.0649
CGATCTCCTTGGGTTCTAACCTGTTGCAC (site CGATCTCCTGT) | 0.303
GCCACACCTTGGGTTCTAACCTGTTGCCT (site GCCAGACCTAG) | 0.177
TTACTCTCTTGGGTTCTAACCTGTTGCCT (site TCACTCTCTAG) | 0.141
TCAAATTCTTGGGTTCTAACCTGTTGCCT (site TCACATTCTAG) | 0.0721
GTCTGATCTTGGGTTCTAACCTGTTGCCT (site GTCTCATCTAG) | 0.113
ATCGGATCTTGGGTTCTAACCTGTTGCCG (site CATAACCCTAT) | 0.349
CGGAAGCCTTGGGTTCTAACCTGTTGCCT (site CGGAAGACTAG) | 0.0744
GGCCCCTCTTGGGTTCTAACCTGTTGCCG (site CGCGCCTCTCG) | 0.368
CAATCACCTTGGGTTCTAACCTGTTGCTT (site CAACCACCTAA) | 0.461
GTACGTCCTTGGGTTCTAACCTGTTGCGT (site GTACGTCCTAG) | 0.0549
CAAAGTCCTTGGGTTCTAACCTGTTGCTT (site CAAAGTCCTAT) | 0.429
GATGGGCCTTGGGTTCTAACCTGTTGCGT (site GATGGGCCTAC) | 2.54

Sequence | recombinant barcode read abundance (log10)
CACGTTACTTGGGTTCTAACCTGTTGCCT (site CACGGAACTAG) | 0.0559
CTAGGCCCTTGGGTTCTAACCTGTTGCTT (site CTAGGCCCTAC) | 0.18
GCGTCGGCTTGGGTTCTAACCTGTTGCCT (site GCGTCGGCTAG) | 0.183
CATTGTACTTGGGTTCTAACCTGTTGCTA (site CATCGGACTTA) | 0.104
GTCACGCCTTGGGTTCTAACCTGTTGCAT (site GTCACGCCTAT) | 0.588
CAGTATTCTTGGGTTCTAACCTGTTGCCT (site CAGTATTCTAG) | 0.702
GAGGGCCCTTGGGTTCTAACCTGTTGCTG (site GAGGGCCCTCC) | 0.808
AGTTGTCCTTGGGTTCTAACCTGTTGCCT (site AGTTGTCCTAA) | 0.174
GACATCACTTGGGTTCTAACCTGTTGCCT (site GACATCGCTAG) | 0.192
TGACCCTCTTGGGTTCTAACCTGTTGCCT (site AGACCCTCTAG) | 0.703
TACGTGTCTTGGGTTCTAACCTGTTGCCT (site TATGTGTCTAG) | 0.103
AGTTAGCCTTGGGTTCTAACCTGTTGCCT (site AGTCAGCCTAG) | 0.161
CAGGATGCTTGGGTTCTAACCTGTTGCCT (site CAAGATGCTAG) | 0.731
AAGAACACTTGGGTTCTAACCTGTTGCCT (site CAGAACACTAG) | 0.46
TAGCAGACTTGGGTTCTAACCTGTTGCCT (site TAGCTGACTAG) | 0.0224
TATAACTCTTGGGTTCTAACCTGTTGCCT (site GATAACTCTAG) | 0.0978
TAAGTCACTTGGGTTCTAACCTGTTGCCT (site GAAGTCACTAG) | 0.0452
CACAATACTTGGGTTCTAACCTGTTGCCT (site GCATGACCTCT) | 0.00751
CCTGACTCTTGGGTTCTAACCTGTTGCAT (site CCTGACTCTAT) | 2.19
CCTCGCACTTGGGTTCTAACCTGTTGCCT (site CATCGCACTAG) | 0.0533
TGGCGTACTTGGGTTCTAACCTGTTGCCT (site TGGTGTACTAG) | 0.149
CGGCCCTCTTGGGTTCTAACCTGTTGCCT (site CAGCCCTCTAG) | 1.23

Sequence | recombinant barcode read abundance (log10)
GAAAAGGCTTGGGTTCTAACCTGTTGCCT (site GAAATGGCTAG) | 0.206
TCTTGTCCTTGGGTTCTAACCTGTTGCGA (site TCTTGTCCTAC) | 0.0306
GTATGCTCTTGGGTTCTAACCTGTTGCGT (site GTATGCTCTAC) | 1.17
GTGAGATCTTGGGTTCTAACCTGTTGCCT (site GTGGAATCTAG) | 0.079
ACGCACTCTTGGGTTCTAACCTGTTGCCT (site ACGCATTCTAG) | 0.394
AGCTAAACTTGGGTTCTAACCTGTTGCCT (site AGCTTATCTAG) | 0.141
CATCGGACTTGGGTTCTAACCTGTTGCAA (site GGCTAACCTAG) | 0.336
GAGTGCCCTTGGGTTCTAACCTGTTGCTT (site GTGTGGCCTAA) | 0.128
TCTCGATCTTGGGTTCTAACCTGTTGCAT (site TCTCGATCTAT) | 0.273
AGAGTAGCTTGGGTTCTAACCTGTTGCAC (site AGAGTAGCTGT) | 2.41
GTACGACCTTGGGTTCTAACCTGTTGCAC (site GTACGACCTGT) | 1.91
TTGGTCACTTGGGTTCTAACCTGTTGCCA (site TTGGTCACTTG) | 0.525
ACGCGGACTTGGGTTCTAACCTGTTGCCT (site ACGCCGACTAG) | 0
TAGCCGACTTGGGTTCTAACCTGTTGCTT (site TAGCCGACTAA) | 0.999
TAGCACACTTGGGTTCTAACCTGTTGCCG (site TAGCACACTCG) | 1.51
ACATTAGCTTGGGTTCTAACCTGTTGCAA (site ACATTAGCTTT) | 0.609
CTCTTAACTTGGGTTCTAACCTGTTGCGG (site AAGCATGCTTA) | 0.113
GAACTGTCTTGGGTTCTAACCTGTTGCCA (site GTACTCTCTTG) | 0.0913
GTCCCCTCTTGGGTTCTAACCTGTTGCCT (site GTCACCTCTAG) | 0.0601
ATAAGCTCTTGGGTTCTAACCTGTTGCCT (site CTAAGCTCTAG) | 0.289
CAGTAGTCTTGGGTTCTAACCTGTTGCCT (site CAGTAGTCTAG) | 1.07
GAGGGTCCTTGGGTTCTAACCTGTTGCAT (site GAGGGTCCTAA) | 0.573

Sequence | recombinant barcode read abundance (log10)
TTACGGGCTTGGGTTCTAACCTGTTGCGG (site TTACGCGCTCC) | 0.183
GACGGCTCTTGGGTTCTAACCTGTTGCCT (site GACGGCTCTAG) | 1.3
ATACGTACTTGGGTTCTAACCTGTTGCCT (site ATACGTACTAG) | 1.74
AGAGCGACTTGGGTTCTAACCTGTTGCCT (site AGAGTGACTAG) | 0.0332
GGCTGATCTTGGGTTCTAACCTGTTGCCT (site TGCTGATCTAG) | 0.216
AGTAAGTCTTGGGTTCTAACCTGTTGCCT (site AGTAAGTCTAG) | 0.61
GAGGCTACTTGGGTTCTAACCTGTTGCAT (site ACAAGGGCTCA) | 0.0274
ACGTCTCCTTGGGTTCTAACCTGTTGCTG (site ACGACTCCTCA) | 0
GACATCCCTTGGGTTCTAACCTGTTGCCT (site GACATCTCTAG) | 0.142
TGACAGTCTTGGGTTCTAACCTGTTGCAG (site TGACAGTCTCT) | 1.42
GAGGGCCCTTGGGTTCTAACCTGTTGCTG (site GAGGGCCCTCG) | 2.03
AGGCACTCTTGGGTTCTAACCTGTTGCTG (site TGGCACTCTAA) | 0.0921
CTAAGGTCTTGGGTTCTAACCTGTTGCAT (site CTAAGGTCTAG) | 0.214
ATGAGTCCTTGGGTTCTAACCTGTTGCAA (site TGAGAGACTAC) | 0.0172
CTGTAGCCTTGGGTTCTAACCTGTTGCTG (site CTGTAGGCTTA) | 0.0376
GCCTCGGCTTGGGTTCTAACCTGTTGCCT (site GCGTCGGCTAG) | 0.0495
CTACAGCCTTGGGTTCTAACCTGTTGCTT (site CTACAGCCTAA) | 0.798
AACTTCCCTTGGGTTCTAACCTGTTGCCT (site AACTTCTCTAG) | 0.0342
ACTATCCCTTGGGTTCTAACCTGTTGCGG (site ACTAGGCCTCC) | 0.283
GAACTCTCTTGGGTTCTAACCTGTTGCTA (site CCTAAAACTAG) | 0.0469
